The record followed here is patent US10688093B2, “Methods, compositions, and uses of novel Fyn kinase inhibitors” (priority 2015, dated 2020).

full-length recombinant human FYN A, sequence (P06241 whole entry): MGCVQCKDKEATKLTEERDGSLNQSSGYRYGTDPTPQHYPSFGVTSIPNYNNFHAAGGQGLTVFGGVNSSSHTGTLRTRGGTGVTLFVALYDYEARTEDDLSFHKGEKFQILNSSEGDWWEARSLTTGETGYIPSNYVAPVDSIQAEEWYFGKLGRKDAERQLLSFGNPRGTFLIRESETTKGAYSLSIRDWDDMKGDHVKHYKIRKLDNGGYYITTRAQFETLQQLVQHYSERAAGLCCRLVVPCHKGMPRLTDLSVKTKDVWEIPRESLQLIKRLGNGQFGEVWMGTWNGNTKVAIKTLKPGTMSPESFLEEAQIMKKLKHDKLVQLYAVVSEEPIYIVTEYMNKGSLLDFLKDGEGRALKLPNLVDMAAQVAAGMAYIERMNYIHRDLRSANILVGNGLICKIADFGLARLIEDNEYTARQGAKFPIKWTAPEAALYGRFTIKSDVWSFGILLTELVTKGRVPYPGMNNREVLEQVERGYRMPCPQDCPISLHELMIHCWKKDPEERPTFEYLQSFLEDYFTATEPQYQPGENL

In one experiment the target is full-length recombinant human FYN A (Homo sapiens (Human), UniProt P06241). Description: ADP-Glo Kinase Assay of FYN kinase inhibition. The experiment is classed as biochemical. The following applies: primary screen, initial compounds. Put shortly:
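GST-tagged full-length FYN A (baculovirus, Sf9) at 3 pg preincubated 30 min RT with compound (10-point 3-fold series from 10 μM) in Tris pH 7.5/MgCl2 buffer. 12-mer tyrosine peptide plus 12.5 pmol ATP added, 90 min RT; ADP measured by ADP-Glo luminescence, IC50 from dose-response.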
The IC50 is the concentration needed to halve the response being measured. On to `COc1cc(-c2cnc3cnc(-c4ccc(C(=O)NCCN(C)C)cc4)cn23)ccc1O` [388_0314_0327, N-(2-dimethylamino-ethyl)-4-[3-(4-hydroxy-3-methoxy-phenyl)imidazo [1,2-a]pyrazin-6-yl]benzamide], for which the IC50 is 0.44 µM.
Regarding `Nc1ccc(-c2cnc3ccc(Cc4ccccc4)nn23)cn1` [Compound 486, 5-(6-benzylimidazo [1,2-b]pyridazin-3-yl)pyridin-2-amine], the half-inhibitory concentration (IC50) is 3.64 µM.
Regarding `NC(=O)c1cccc(-c2cnc3sc(NCCCO)nn23)c1` [Compound 264, 3-[2-(3-hydroxypropyl-amino)imidazo [2,1-b][1,3,4]thiadiazol-5-yl]benzamide], the IC50 came to 2.88 µM.
Still for that read-out and setting: for `CCOc1cccc(-c2cn3c(-c4cccc(O)c4)cnc3cn2)c1` [Compound 232, 3-[6-(3-ethoxyphenyl)imidazo[1,2-a]pyrazin-3-yl]phenol] the value was 6.69 µM; for `CN(C)CCNC(=O)c1ccc(-c2cn3c(-c4ccsc4)cnc3cn2)cc1` [Compound 228, N-(2-dimethylamino-ethyl)-4-[3-(3-thienyl)imidazo [1,2-a]pyrazin-6-yl]benzamide], 1.9 µM.
Still for that read-out and setting: with `COc1ccccc1-c1n[nH]c2nccc(-c3ccoc3)c12` [Compound 516, 4-(3-furyl)-3-(2-methoxyphenyl)-1H-pyrazolo[3,4-b]pyridine] the figure was 4.9 µM; with `O=C(O)/C=C/c1cccc(-c2cnn3ccc(NCc4cccnc4)nc23)c1` [Compound 539, (E)-3-[3-[5-(3-pyridylmethyl-amino)pyrazolo [1,5-a]pyrimidin-3-yl]phenyl]prop-2-enoic acid], 2.27 µM; with `COc1cccc(-c2cnc3ccc(NCC4CC4)nn23)c1` [229_4051_4140, N-(cyclopropyl-methyl)-3-(3-methoxyphenyl) imidazo[1,2-b]pyridazin-6-amine], 3.3 µM.
Regarding `CNc1ccc2ncc(-c3ccc(OC)cc3)n2n1` [Compound 437_0280, 3-(4-methoxyphenyl)-N-methyl-imidazo[1,2-b]pyridazin-6-amine], the 50% inhibitory concentration (IC50) is 4.16 µM.
As for `NC(=O)c1ccc(-c2ccnc3[nH]nc(-c4cccc(F)c4)c23)cc1` [Compound 509, 4-[3-(3-fluorophenyl)-1H-pyrazolo[3,4-b]pyridin-4-yl]benzamide], the IC50 stood at 2.05 µM.
On to `COc1ccc(-c2ccc3ncc(-c4cccc(CO)c4)n3n2)cc1OC` [Compound 436, [3-[6-(3,4-dimethoxyphenyl)imidazo[1,2-b]pyridazin-3-yl]phenyl] methanol], for which the IC50 was 0.749 µM.
Still for that read-out and setting: with `CC(=O)c1ccc(-c2cnc3sc(NCCN4CCOCC4)nn23)s1` [Compound 564, 1-[5-[2-(2-morpholinoethyl-amino)imidazo [2,1-b][1,3,4]thiadiazol-5-yl]-2-thienyl] ethanone] the figure was 3 µM; with `COc1ccc(CNc2nn3c(-c4cccc(C(=O)N(C)C)c4)cnc3s2)cc1` [Compound 280, 3-[2-[(4-methoxyphenyl)methylamino]imidazo[2,1-b] [1,3,4]thiadiazol-5-yl]-N,N-dimethyl-benzamide], 2.33 µM.
On to `CN1CCN(c2ccc(-c3cn4c(-c5ccc(O)cc5)cnc4cn3)cc2)CC1` [388_0080_0218, 4-[6-[4-(4-methyl-piperazin-1-yl)phenyl]imidazo [1,2-a]pyrazin-3-yl]phenol], for which the half-maximal inhibitory concentration (IC50) was 0.678 µM.
Still for that read-out and setting: with `CN1CCN(c2ccc(-c3cn4c(-c5cccc(O)c5)cnc4cn3)cn2)CC1` [Compound 230, 3-[6-[6-(4-methylpiperazin-1-yl)-3-pyridyl]imidazo [1,2-a]pyrazin-3-yl]phenol] the figure was 3.14 µM.

The same experiment, now with this note: secondary screen, re-synthesized and expanded compounds.
In the case of `COc1cc(-c2cc(-c3cccc(O)c3)cnc2N)cc(OC)c1OC` [BF000312527, 3-[6-amino-5-(3,4,5-trimethoxy-phenyl)-3-pyridyl]-phenol], the IC50 turned out to be 0.526 µM.
Regarding `Oc1cccc(-c2cnc3ccc(-c4ccncc4)nn23)c1` [BF000726352, 3-[6-(4-pyridyl)-imidazo[1,2-b]pyridazin-3-yl]phenol], the IC50 turned out to be 0.342 µM.
